Laboratory results from US20240120519A1, “NON-AQUEOUS REDOX FLOW BATTERIES” (ENI S.P.A., priority 2020, published 2024).
Read-outs that look alike come from different tables or passages of the source.

Experiments:
[1] = Cyclic voltammetry measurements (oxidation-reduction potentials); assay type: physicochemical; conditions: for E°′ ACN (V vs Fc/Fc^+): acetonitrile; for E°′ ACN (V vs Fc/Fc^+) / E°′ PC (V vs Fc/Fc^+): 0.1 M TBABF4, glassy carbon working electrode, 25° C., normalised to Fc/Fc^+; for E°′ PC (V vs Fc/Fc^+): propylene carbonate
Description: Cyclic voltammetry measurements were carried out in a hemi-cell with a three-electrode configuration, with glassy carbon working electrode, platinum counter electrode and silver/silver chloride (Ag/AgCl) reference electrode. The oxidation-reduction potentials E°′Ox/Red were derived from the position of the forward peak (Epf) and the return peak (Epr):
and the values were normalised with respect to the intersolvent ferrocene/ferrocenium (Fc/Fc^+) couple.
Evaluations were carried out on an Autolab PGSTAT 128N analytical instrument at scan rates of 10, 20, 50, 70, 100, and 200 mV/s. All evaluations were carried out in triplicate at room temperature (25° C.). For the purpose, use was made of solutions containing: • benzothiadiazole (1) (Aldrich) (5×10^−3 M) and tetrabutylammonium tetrafluoro-borate (TBABF4) (Aldrich) (0.1 M) in acetonitrile (Aldrich) (non-aqueous liquid negative electrolyte of the negative compartment) (BTD); • benzothiadiazole (1) (Aldrich) (5×10^−3 M) and tetrabutylammonium tetrafluoro-borate (TBABF4) (Aldrich) (0.1 M) in propylene carbonate (Aldrich) (non-aqueous liquid negative electrolyte of the negative compartment) (BTD); • 4,7-di[2-(propyloxycarbonylethyloxy)phenyl]-benzothiadiazole [compound (2) obtained in Example 7] (5×10^−3 M) and tetrabutylammonium tetrafluoroborate (TBABF4) (Aldrich) (0.1 M) in acetonitrile (Aldrich) (non-aqueous liquid negative electrolyte of the negative compartment) (BTD); • 4,7-di[2-(propyloxycarbonylethyloxy)phenyl]-benzothiadiazole [compound (2) obtained in Example 7] (5×10^−3 M) and tetrabutylammonium tetrafluoroborate (TBABF4) (Aldrich) (0.1 M) in propylene carbonate (Aldrich) (non-aqueous liquid negative electrolyte of the negative compartment) [BTD (2)]; • 4,7-di[2-methoxycarbonylethyloxy)phenyl]-benzothiadiazole [compound (3) obtained in Example 1] (5×10^−3 M) and tetrabutylammonium tetrafluoroborate (TBABF4) (Aldrich) (0.1 M) in acetonitrile (Aldrich) (non-aqueous liquid negative electrolyte of the negative compartment) [BTD (3)]; • 4,7-di[2-(methoxycarbonylethyloxy)phenyl]-benzothiadiazole [compound (3) obtained in Example 1] (5×10^−3 M) and tetrabutylammonium tetrafluoroborate (TBABF4) (Aldrich) (0.1 M) in propylene carbonate (Aldrich) (non-aqueous liquid negative electrolyte of the negative compartment) [BTD (3)]; • 4,7-di[2-(2-(2-methoxyethoxy)ethoxy)phenyl]-benzothiadiazole [compound (4) obtained in Example 3] (5×10^−3 M) and tetrabutylammonium tetrafluoroborate (TBABF4) (Aldrich) (0.1 M) in acetonitrile (Aldrich) (non-aqueous liquid negative electrolyte of the negative compartment) [BTD (4)]; • 4,7-di[2-(2-(2-methoxyethoxy)ethoxy)phenyl]-benzothiadiazole [compound (4) obtained in Example 3] (5×10^−3 M) and tetrabutylammonium tetrafluoroborate (TBABF4) (Aldrich) (0.1 M) in propylene carbonate (Aldrich) (non-aqueous liquid negative electrolyte of the negative compartment) [BTD (4)]; • 4,7-di[2,6-di(propyloxycarbonylethyloxy)phenyl]-benzothiadiazole [compound (5) obtained in Example 4] (5×10^−3 M) and tetrabutylammonium tetrafluoroborate (TBABF4) (Aldrich) (0.1 M) in acetonitrile (Aldrich) (non-aqueous liquid negative electrolyte of the negative compartment) [BTD (5)]; • 4,7-di[2,6-di(propyloxycarbonylethyloxy)phenyl]-benzothiadiazole [compound (5) obtained in Example 4] (5×10^−3 M) and tetrabutylammonium tetrafluoroborate (TBABF4) (Aldrich) (0.1 M) in propylene carbonate (Aldrich) (non-aqueous liquid negative electrolyte of the negative compartment) [BTD (5)]; • 4,7-di[2,5-di(propyloxycarbonylethyloxy)phenyl]-benzothiadiazole [compound (6) obtained in Example 5] (5×10^−3 M) and tetrabutylammonium tetrafluoroborate (TBABF4) (Aldrich) (0.1 M) in acetonitrile (Aldrich) (non-aqueous liquid negative electrolyte of the negative compartment) [BTD (6)]; • 4,7-di[2,5-di(propyloxycarbonylethyloxy)phenyl]-benzothiadiazole [compound (6) obtained in Example 5] […]

[2] = Stability tests in cyclic voltammetry; assay type: physicochemical; conditions: 1×10^−3 M, 0.1 M TBABF4 in acetonitrile
Description: Stability tests were carried out using the same electrochemical cell as in Example 9.
For the purpose, use was made of solutions containing: • 4,7-di[2-(propyloxycarbonylethyloxy)phenyl]-benzothiadiazole [Compound (2) obtained in Example 2 or 7] (1×10^−3 M) and tetrabutylammonium tetrafluoroborate (TBABF4) (Aldrich) 0.1 M in acetonitrile (Aldrich) (non-aqueous liquid negative electrolyte of the negative compartment).

[3] = Non-aqueous redox flow battery (RFB) charge/discharge tests
Description: Charge-discharge tests were carried out using an electrochemical cell with a Teflon® membrane (DuPont), having a surface area equal to approximately 0.8 cm^2, placed between two platinum electrodes (Methrohm) having a surface area equal to approximately 0.07 cm^2. The electrochemical cell was then assembled and sealed in a container containing argon (Ar).
For the purpose, use was made of solutions containing: • 4,7-di[2-(propyloxycarbonylethyloxy)phenyl]-benzothiadiazole [Compound (2) obtained in Example 7]: (1×10^−3 M) and tetrabutylammonium tetrafluoroborate (TBABF4) (Aldrich) (0.1 M) in acetonitrile (Aldrich) (non-aqueous liquid negative electrolyte of the negative compartment), degassed with argon (Ar) and subjected to electrolysis in order to obtain benzothiadiazole in reduced form [(BTD (2)·^−)]; • tetrakisacetonitrile copper(I) tetrafluoroborate [Cu(NCCH3)4·BF4] (1×10^−3 M) and tetrabutylammonium tetrafluoroborate (TBABF4) (Aldrich) (0.1 M) in acetonitrile (Aldrich) (non-aqueous liquid positive electrolyte of the positive compartment) (Cu triflate), degassed with argon (Ar).
6 ml of the above solutions were introduced into the respective compartments.
The test was carried out using a potentiostat/galvanostat Autolab PGSTAT 128N (Metrohom) at room temperature (25° C.).
Charge and discharge curves were carried out to assess the performance of the electrolytes in the cell. […]

Row | Compound | E°′ ACN (V vs Fc/Fc^+) [1] [V vs Fc/Fc^+] | E°′ PC (V vs Fc/Fc^+) [1] [V vs Fc/Fc^+] | potential difference (E°) in open circuit ([1]; solution in acetonitrile, E°=(E°1)−(E°2) against Cu triflate (0.62 V)) [V] | stability over 150 successive redox cycles [2] | stability during charge/discharge (oxidation-reduction cycles) [3] | stability during charge/discharge (oxidation-reduction cycles) ([3]; 1×10^−3 M in acetonitrile, 0.1 M TBABF4, Teflon membrane, charge 2.5 V, discharge 0.5 V, 240 seconds each, 25° C.)
1 | CCOC(=O)CCCOc1ccccc1-c1ccc(-c2ccccc2OCCCC(=O)OCC)c2nsnc12 [Compound (2)] | −1.91 | −1.84 | 2.53 | the cycles are superimposable | good stability during oxidation-reduction cycles | 
2 | CCOC(=O)COc1ccccc1-c1ccc(-c2ccccc2OCC(=O)OCC)c2nsnc12 [Compound (3)] | −1.86 | −1.82 |  |  |  | 
3 | COCCOCCOc1ccccc1-c1ccc(-c2ccccc2OCCOCCOC)c2nsnc12 [Compound (4), 4,7-di[2-(2-(2-methoxyethoxy)ethoxy)phenyl]-benzothiadiazole] | −1.90 | −1.85 |  |  |  | 
4 | CCOC(=O)CCCOc1cccc(OCCCC(=O)OCC)c1-c1ccc(-c2c(OCCCC(=O)OCC)cccc2OCCCC(=O)OCC)c2nsnc12 [Compound (5)] | −2.00 | −1.95 |  |  |  | 
5 | CCOC(=O)CCCOc1ccc(OCCCC(=O)OCC)c(-c2ccc(-c3cc(OCCCC(=O)OCC)ccc3OCCCC(=O)OCC)c3nsnc23)c1 [Compound (6)] | −1.88 | −1.83 |  |  |  | 
6 | CCOC(=O)CCCOc1ccc(-c2ccc(-c3ccc(OCCCC(=O)OCC)cc3OCCCC(=O)OCC)c3nsnc23)c(OCCCC(=O)OCC)c1 [Compound (7)] | −1.93 | −1.88 |  |  |  | 
7 | O=S(=O)([O-])C(F)(F)F.O=S(=O)([O-])C(F)(F)F.[Cu+2] [Cu triflate, copper(II) trifluoromethanesulphonate, reference compound] | 0.62 | 0.43 |  |  |  | 
8 | CC#N.CC#N.CC#N.CC#N.F[B-](F)(F)F.[Cu+] [Cu, tetrakisacetonitrile copper(I) tetrafluoroborate, reference compound] |  |  |  |  |  | good stability during oxidation-reduction cycles
